Experimental data reported in patent EP0768085A1, “ANTIBACTERIAL AGENT” (DAIICHI PHARMACEUTICAL CO., LTD., priority 1994, dated 1996).
Values after ≈ are worked out from the molar mass of the structure shown. Like-named read-outs stand apart in the source and are kept apart here.

Columns and labels:
in vivo = settings: mouse, oral administration, single dose, suspended in aqueous 0.5% CMC solution, male mice, observed for 14 days
Experimental: Acute toxicity (LD50) of a ketonitrile derivative of the present invention (Compound No. 4) was tested using male mice (Slc:ddY, 5 weeks old). To groups of each 5 mice, the compounds suspended in aqueous 0.5% CMC solution were forcibly dosed orally at a single time so that the final dosages of 707, 1,000, 1,414, and 2,000 mg/kg were attained. […] As a result, LD50 value under conditions of oral administration was estimated to be higher than 2,000 mg/kg. Thus, the compound was confirmed to be quite non-toxic.
To groups of each 5 mice, the compounds suspended in aqueous 0.5% CMC solution were forcibly dosed orally at a single time so that the final dosages of 500, 1,000, 1,500, and 2,000 mg/kg were attained. […] As a result, the LD50 value was estimated to be higher than 2,000 mg/kg. Thus, the compounds were confirmed to be quite non-toxic.

[1] = system: Staphylococcus aureus 209-P; assay: Antibacterial activity (IC), Mueller-Hinton broth, 96-well microplate (Example 4, Table 39); format: cell-based; settings: 37°C, 18 hours
Method in brief: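 S. aureus 209-P at 10^6 CFU/ml in Mueller-Hinton broth, compound (DMSO/water) at final 100, 10 and 1 µg/ml, 18 h at 37°C. Growth inhibition scored by turbidity; IC reported as ≤100, ≤10 or ≤1 µg/ml bands.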

[2] = system: Staphylococcus aureus TI-1; assay: Antibacterial activity (IC), broth microplate as in Example 4 (Example 5, Table 40); format: cell-based; settings: TI1, 18 h
Method in brief: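 S. aureus TI-1 at 10^6 CFU/ml in Mueller-Hinton broth exposed to compound at final 100, 10 and 1 µg/ml (DMSO/water stock), 37 °C for 18 h. Growth inhibition judged by turbidity; IC reported as ≤100, ≤10 or ≤1 µg/ml bands.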

[3] = system: Pasteurella multocida (Kobe-6); assay: Antibacterial activity (IC), broth microplate as in Example 4 (Example 6, Table 41); format: cell-based; settings: 18 h, origin pig
Experimental: A suitable amount of a sample was dissolved in dimethylsulfoxide (DMSO), and the resultant solution was diluted with the same amount of sterilized distilled water to prepare a bulk sample of 1,000 µg/ml. Mueller-Hinton broth (product of DIFCO) was dispensed into each well of 96-well microplate. Thereafter, the bulk specimen was added to the first well of a row, and successively diluted (10-fold each time) with sterilized distilled water. Separately, a bacterial cell suspension for the test (Staphylococcus aureus 209-P) which had been cultured in the above-mentioned broth overnight at 37°C was inoculated to each well so that the final inoculation amount of 10^6 CFU/ml was attained. The final concentrations of the samples were 100, 10, and 1 µg/ml.
The antibacterial action was evaluated by the inhibitory concentration (hereinafter abbreviated as IC) at which propagation of the bacteria cultured at 37°C for 18 hours was inhibited. Inhibition was determined by the turbidity of the medium. The expressions "IC≤100", "≤10", and "≤1" indicate that MIC-equivalent values obtained at the succesive […] dilution of the sample are 100-10 µg/ml, 10-1 µg/ml, and not more than 1 µg/ml, respectively. […] (In the subsequent Examples, the same rule applies correspondingly.) Table 39
In a manner similar to that described in Example 4, antibacterial activity of the invention compound was determined. The bacterium used for the test was Pasteurella Kobe-6 (origin: pig; Pasteurella multocida).

Pasteurella from cattle = assay: MIC by agar plate dilution method (Example 9, Table 44); format: cell-based; settings: 18 h
Experimental: (§1) Through use of a ketonitrile derivative of the present invention (Compound No. 4) as a sample, minimum inhibitory concentrations (MIC) of Staphylococcus aureus and Pasteurella from cattle were determined by an agar plate dilution method in accordance with the standard procedure authorized by Japan Chemotherapy Association ["Chemotherapy", 29, 76-79, 1981, under the heading "Revised Measurement of Minimum Inhibitory Concentration (MIC)"]. The samples were dissolved in dimethylsulfoxide and diluted with the same amount of sterilized distilled water to prepare a bulk sample liquid of 1,000 µg/ml. The bulk was diluted into a series of 2-fold dilutions using sterilized distilled water.
(§2) Separately, the bacterial cell suspensions for the test shown in Table 18 were cultured in Mueller-Hinton broth (DIFCO) at 37°C for 18-20 hours in advance. They were controlled to have a bacterial amount of 10^6 CFU/ml by use of Mueller-Hinton broth. The thus-controlled liquids were inoculated to a Muller-Hinton agar plate containing the sample, followed by culturing at 37°C for 18 hours. The concentration at which bacterial growth was no longer observed was taken as the MIC.

Staphylococcus aureus = assay: as above; format: cell-based; settings: 18 h
Experimental: as §1, §2

[4] = system: various bacterial strains; assay: MIC by microliquid dilution method (Example 10, Table 45); format: cell-based
Experimental: Through use of a ketonitrile derivative of the present invention (Compound No. 4) as a sample, minimum inhibitory concentrations (MIC) of respective bacterial strains were determined by a microliquid dilution method in accordance with the standard procedure authorized by Japan Chemotherapy Association ["Chemotherapy", 29, 76-79, 1981, under the heading "Revised Measurement of Minimum Inhibitory Concentration (MIC)"]. The samples were dissolved in dimethylsulfoxide and diluted with the same amount of sterilized distilled water to prepare a bulk sample liquid of 1,000 µg/ml. The bulk sample was cultured in Mueller-Hinton broth at 37°C for 18 hours.

SMILES: CC(Oc1ccc(Oc2ncc(C(F)(F)F)cc2Cl)cc1)C(=O)C(C#N)c1ccc(Cl)c(Cl)c1 (stereo not drawn) [Compound No. 4, 4-[4-(3-chloro-5-trifluoromethyl-2-pyridyloxy)phenoxy]-2-(3,4-dichlorophenyl)-3-oxopentanonitrile]
- LD50 at 336 h (in vivo): > 2000 mg/kg
- MIC [1]: ≤ 1 µg/mL
- MIC [2]: ≤ 1 µg/mL
- MIC [3]: 10 to 100 µg/mL (≈ 18.9 to 189 µM)
- MIC (Pasteurella from cattle; Pasteurella Multosida 1F-17, origin Cattle): 1.56 µg/mL (≈ 2.94 µM)
- MIC (Pasteurella from cattle; Pasteurella haemolytica 1F-15, origin Cattle): 6.25 µg/mL (≈ 11.8 µM)
- MIC (Staphylococcus aureus; 209P, Staphylococcus aureus 209P, origin Standard strain): 1.56 µg/mL (≈ 2.94 µM)
- MIC (Staphylococcus aureus; Staphylococcus aureus 1SS1, origin Chicken): 3.13 µg/mL (≈ 5.91 µM)
- MIC (Staphylococcus aureus; Staphylococcus aureus 3-2, origin Pig): 3.13 µg/mL (≈ 5.91 µM)
- MIC (Staphylococcus aureus; Staphylococcus aureus TI-1, origin Cattle): 6.25 µg/mL (≈ 11.8 µM)
- MIC ([4]; 18 h, Staphylococcus aureus SMITH, read-out: MIC): 3.13 µg/mL (≈ 5.91 µM)
- MIC ([4]; 18 h, Staphylococcus epidermis 56556, read-out: MIC): 6.25 µg/mL (≈ 11.8 µM)
- MIC ([4]; 18 h, Streptococcus mitis 11D 685, read-out: MIC): 12.5 µg/mL (≈ 23.6 µM)
- MIC ([4]; 18 h, Streptococcus pyogenes G-36, read-out: MIC): 6.25 µg/mL (≈ 11.8 µM)
- MIC ([4]; ATCC6633, 18 h, Bacillus subtilis ATCC 6633, read-out: MIC): 3.13 µg/mL (≈ 5.91 µM)
- MIC ([4]; ATCC19433, 18 h, Enterococcus faecalis ATCC 19433, read-out: MIC): 6.25 µg/mL (≈ 11.8 µM)
- MIC ([4]; Staphylococcus aureus M5-1 (Methicillin-resistant Staphylococcus aureus)): 3.13 µg/mL (≈ 5.91 µM)
- MIC ([4]; Staphylococcus aureus M5-2 (Methicillin-resistant Staphylococcus aureus)): 3.13 µg/mL (≈ 5.91 µM)
